PubChem BioAssay (NCI)
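96-well plates; 48 h exposure; 5 concentrations. Endpoints by linear interpolation between flanking doses. Not reached: highest tested concentration assigned. TGI is the concentration that stops growth completely.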

What was measured:
Assay in all cases: inhibition of tumour cell growth, NCI panel, 48 h
[1] = system: SR leukemia
[2] = system: SW-620 colon
[3] = system: HCT-116 colon
[4] = system: XF 498 CNS
[5] = system: DLD-1 colon
[6] = system: NCI-H23 lung
[7] = system: HOP-62 NSCLC
[8] = system: SNB-75 CNS
[9] = system: DMS 273 small cell lung
[10] = system: SK-MEL-28 melanoma
[11] = system: CCRF-CEM leukemia
[12] = system: UACC-62 melanoma
[13] = system: SF-539 CNS
[14] = system: SN12C renal
[15] = system: SF-295 CNS
[16] = system: HT29 colon
[17] = system: M19-MEL melanoma
[18] = system: 786-0 renal
[19] = system: OVCAR-8 ovarian
[20] = system: OVCAR-4 ovarian
[21] = system: A549 NSCLC
[22] = system: RXF 393 renal
[23] = system: IGROV1 ovarian
[24] = system: LXFL 529 NSCLC
[25] = system: ACHN renal
[26] = system: HCC-2998 colon
[27] = system: EKVX NSCLC
[28] = system: RXF-631 renal
[29] = system: SNB-78 CNS
[30] = system: A498 renal
[31] = system: DMS 114 small cell lung
[32] = system: HOP-92 NSCLC
[33] = system: NCI-H460 lung
[34] = system: OVCAR-3 ovarian
[35] = system: SNB-19 CNS
[36] = system: UACC-257 melanoma
[37] = system: MOLT-4 leukemia
[38] = system: KM12 colon
[39] = system: RPMI-8226 leukemia
[40] = system: SK-OV-3 ovarian
[41] = system: SK-MEL-2 melanoma
[42] = system: U251 CNS
[43] = system: HOP-18 NSCLC
[44] = system: HCT-15 colon
[45] = system: KM20L2 colon
[46] = system: COLO 205 colon
[47] = system: K-562 leukemia
[48] = system: UO-31 renal
[49] = system: CAKI-1 renal
[50] = system: M14 melanoma
[51] = system: HL-60(TB) leukemia
[52] = system: SK-MEL-5 melanoma
[53] = system: LOX IMVI melanoma
[54] = system: MALME-3M melanoma
[55] = system: TK-10 renal
[56] = system: OVCAR-5 ovarian
[57] = system: SF-268 CNS
[58] = system: NCI-H522 lung
[59] = system: NCI-H226 lung

Measured: TGI

CCOC1c2nc3ccccc3nc2-c2ccccc2N1C(C)=O (stereo not drawn)
not listed: [52] | [53] | [54] | [55] | [56] | [57] | [58] | [59]
> 100 µM: all other assays above

O=C(Nc1nc(=S)[nH][nH]1)C(=O)C(c1cnc2ccc([N+](=O)[O-])cc2n1)[N+](=O)[O-] (stereo not drawn)
not listed: [9] | [41]
> 100 µM: all other assays above
